Reference: patent publication US10815222B2, “Compounds for use in the treatment of kinetoplastid infection” (C.N.C.C.S. S.c.a.r.l. COLLEZIONE NAZIONALE DEI COMPOSTI …, priority 2016, dated 2020)

Tested on: Bloodstream form of Trypanosoma brucei, strain Lister 427
Test: Trypanosoma brucei growth inhibition assay (CellTiter-Glo, 24 h)
Type: cell-based
Settings: Trypanosoma brucei; T. Brucei Growth Inibition Assay, class symbols; read-out: T. Brucei GI EC50
Procedure, shortened: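 Growth read-out was CellTiter-Glo luminescence after 24 h at 37 °C incubation of 1500 bloodstream-form Lister 427 trypanosomes per well with compound, in supplemented IMDM containing 10% FBS and at most 0.25% DMSO.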

Row | Compound | EC50 [nM]
1 | COc1ccc2nc(C(F)(F)F)n(CC(=O)N3CC[C@H](NC4CCOC4)C[C@H]3c3ncc(-c4cc5ccccc5nc4OC)[nH]3)c2c1 (stereo partly drawn) [2-(6-methoxy-2-(trifluoromethyl)-1H-benzo[d]imidazol-1-yl)-1-((2S,4S)-2-(5-(2-methoxyquinolin-3-yl)-1H-imidazol-2-yl)-4-((tetrahydrofuran-3-yl)amino)piperidin-1-yl)ethan-1-one] | < 100
2 | COc1nc2ccccc2cc1-c1cnc([C@@H]2CN(C3CCOCC3)CCN2C(=O)Cn2c(C(F)(F)F)nc3ccccc32)[nH]1 [(S)-1-(2-(5-(2-methoxyquinolin-3-yl)-1H-imidazol-2-yl)-4-(tetrahydro-2H-pyran-4-yl)piperazin-1-yl)-2-(2-(trifluoromethyl)-1H-benzo[d]imidazol-1-yl)ethan-1-one] | < 100
3 | COc1ccc2cc(C)n(CC(=O)N3CCOCC3c3ncc(-c4cc5ccccc5nc4OC)[nH]3)c2c1 (stereo not shown) | 510 to 1000
4 | COc1ccc2onc(CC(=O)N3CCN(CC4CCOC4)C[C@H]3c3ncc(-c4cc5ccccc5nc4OC)[nH]3)c2c1 (stereo partly shown) | 100 to 500
5 | CCCCCCN1CCN(C(=O)Cc2c[nH]c3ccc(O)cc23)C(c2ncc(-c3ccc4ccccc4c3)[nH]2)C1 (stereo not shown) | 1010 to 5000
6 | CCC(=O)CCCN1CCN(C(=O)c2ccccc2)C(c2ncc(-c3ccc4ccccc4c3)[nH]2)C1 (stereo not shown) [6-(4-benzoyl-3-(5-(naphthalen-2-yl)-1H-imidazol-2-yl)piperazin-1-yl)hexan-3-one] | 1010 to 5000
7 | Cc1[nH]c2ccccc2c1CC(=O)N1CCN(CC2CCOC2)CC1c1ncc(-c2ccc3ccccc3c2)[nH]1 (stereo not shown) [2-(2-methyl-1H-indol-3-yl)-1-(2-(5-(naphthalen-2-yl)-1H-imidazol-2-yl)-4-((tetrahydrofuran-3-yl)methyl)piperazin-1-yl)ethan-1-one] | < 100
8 | COc1ccc2nc(C(F)(F)F)n(CC(=O)N3CCN(C4CCN(C)CC4)C[C@H]3c3ncc(-c4cc5ccccc5nc4OC)[nH]3)c2c1 | 100 to 500
9 | COc1ccc2nc(C)n(CC(=O)N3CCN(C[C@@H]4CCOC4)CC3c3ncc(-c4ccc(-c5ccccc5)nc4OC)[nH]3)c2c1 (stereo partly shown) | 1010 to 5000
10 | COc1nc2ccccc2cc1-c1cnc(C2CN(CC3CCOC3)CCN2C(=O)c2cnc3ccccc3c2)[nH]1 (stereo not shown) | 1010 to 5000
11 | Cn1cc(CC(=O)N2CCN(CC3CC3)CC2c2ncc(-c3ccc4ccccc4c3)[nH]2)c2ccccc21 (stereo not shown) | 1010 to 5000
12 | COc1nc2ccccc2cc1-c1cnc(C2CN(CC3CCOC3)CCN2C(=O)Cc2ccc(N3CCNC3=O)cc2)[nH]1 (stereo not shown) | 1010 to 5000
13 | COc1ccc2nc(C)n(CC(=O)N3CCN(Cc4cocn4)C[C@H]3c3ncc(-c4cc5ccccc5nc4OC)[nH]3)c2c1 [(S)-2-(6-methoxy-2-methyl-1H-benzo[d]imidazol-1-yl)-1-(2-(5-(2-methoxyquinolin-3-yl)-1H-imidazol-2-yl)-4-(oxazol-4-ylmethyl)piperazin-1-yl)ethan-1-one] | < 100
14 | COc1ccc2nc(C(F)(F)F)n(CC(=O)N3CC[C@H](NCC(C)C)C[C@H]3c3ncc(-c4cc5ccccc5nc4OC)[nH]3)c2c1 [1-((2S,4S)-4-(isobutylamino)-2-(5-(2-methoxyquinolin-3-yl)-1H-imidazol-2-yl)piperidin-1-yl)-2-(6-methoxy-2-(trifluoromethyl)-1H-benzo[d]imidazol-1-yl)ethan-1-one] | < 100
15 | COc1nc2ccccc2cc1-c1cnc(C2CN(Cc3cc[n+]([O-])cc3)CCN2C(=O)Cc2c(C)[nH]c3ccc(F)cc23)[nH]1 (stereo not shown) | 1010 to 5000
16 | CN1CCN(C(=O)Cc2ccccc2)C(c2ncc(-c3ccc4ccccc4c3)[nH]2)C1 (stereo not shown) | 1010 to 5000
17 | COc1ccc2nc(C(F)(F)F)n(CC(=O)N3CCCCC3c3ncc(-c4cc5ccccc5nc4OC)[nH]3)c2c1 (stereo not shown) [2-(6-methoxy-2-(trifluoromethyl)-1H-benzo[d]imidazol-1-yl)-1-(2-(5-(2-methoxyquinolin-3-yl)-1H-imidazol-2-yl)piperidin-1-yl)ethan-1-one] | < 100
18 | COc1nc2ccccc2cc1-c1cnc(C2CN(Cc3cn(C)nn3)CCN2C(=O)Cc2c(C)[nH]c3ccc(F)cc23)[nH]1 (stereo not shown) | 100 to 500
19 | COc1nc2ccccc2cc1-c1cnc([C@@H]2CN(Cc3cocn3)CCN2C(=O)Cn2c(C(F)(F)F)nc3ccccc32)[nH]1 [(S)-1-(2-(5-(2-methoxyquinolin-3-yl)-1H-imidazol-2-yl)-4-(oxazol-4-ylmethyl)piperazin-1-yl)-2-(2-(trifluoromethyl)-1H-benzo[d]imidazol-1-yl)ethan-1-one] | < 100
20 | COc1nc2ccccc2cc1-c1cnc(C2CN(CC3CCOC3)CCN2C(=O)Cn2nc3ccccc3n2)[nH]1 (stereo not shown) | 1010 to 5000

Row | Compound | EC50 [nM]
21 | CCC(=O)CCCN1CCN(C(=O)Cc2c(C)[nH]c3ccc(OC)cc23)C(c2ncc(-c3ccc4ccccc4c3)o2)C1 (stereo not shown) [6-(4-(2-(5-methoxy-2-methyl-1H-indol-3-yl)acetyl)-3-(5-(naphthalen-2-yl)oxazol-2-yl)piperazin-1-yl)hexan-3-one] | 1010 to 5000
22 | COc1ccc2nc(C(F)(F)F)n(CC(=O)N3CC[C@H](NC(C)C)C[C@H]3c3ncc(-c4cc5ccccc5nc4OC)[nH]3)c2c1 [1-((2S,4S)-4-(isopropylamino)-2-(5-(2-methoxyquinolin-3-yl)-1H-imidazol-2-yl)piperidin-1-yl)-2-(6-methoxy-2-(trifluoromethyl)-1H-benzo[d]imidazol-1-yl)ethan-1-one] | < 100
23 | COc1ccc2nc(C(F)(F)F)n(CC(=O)N3CC[C@H](N4CCOCC4)C[C@H]3c3ncc(-c4cc5ccccc5nc4OC)[nH]3)c2c1 [2-(6-methoxy-2-(trifluoromethyl)-1H-benzo[d]imidazol-1-yl)-1-((2S,4S)-2-(5-(2-methoxyquinolin-3-yl)-1H-imidazol-2-yl)-4-morpholinopiperidin-1-yl)ethan-1-one] | < 100
24 | COc1nc2ccccc2cc1-c1cnc(C2CNCCN2C(=O)Cc2c(C)[nH]c3ccc(F)cc23)[nH]1 (stereo not shown) [2-(5-fluoro-2-methyl-1H-indol-3-yl)-1-(2-(5-(2-methoxyquinolin-3-yl)-1H-imidazol-2-yl)piperazin-1-yl)ethan-1-one] | 1010 to 5000
25 | COc1ccc2nc(C)n(CC(=O)N3CC[C@H](NCc4ccn(C)n4)C[C@H]3c3ncc(-c4cc5ccccc5nc4OC)[nH]3)c2c1 | 1010 to 5000
26 | COc1nc2ccccc2cc1-c1cnc([C@@H]2CN(C3CCN(C(C)=O)CC3)CCN2C(=O)Cn2c(C(F)(F)F)nc3ccccc32)[nH]1 [(S)-1-(4-(1-acetylpiperidin-4-yl)-2-(5-(2-methoxyquinolin-3-yl)-1H-imidazol-2-yl)piperazin-1-yl)-2-(2-(trifluoromethyl)-1H-benzo[d]imidazol-1-yl)ethan-1-one] | < 100
27 | CN1CCN(C(=O)CCS(=O)(=O)c2ccccc2)C(c2ncc(-c3ccc4ccccc4c3)[nH]2)C1 (stereo not shown) | 1010 to 5000
28 | COc1ccc2nc(C(F)(F)F)n(CC(=O)N3CC[C@H](NCCO)C[C@H]3c3ncc(-c4cc5ccccc5nc4OC)[nH]3)c2c1 [1-((2S,4S)-4-((2-hydroxyethyl)amino)-2-(5-(2-methoxyquinolin-3-yl)-1H-imidazol-2-yl)piperidin-1-yl)-2-(6-methoxy-2-(trifluoromethyl)-1H-benzo[d]imidazol-1-yl)ethan-1-one] | < 100
29 | COc1nc2ccccc2cc1-c1cnc(C2CN(CC3CCOC3)CCN2C(=O)Cc2noc3ccccc23)[nH]1 (stereo not shown) | 510 to 1000
30 | COc1ccc2[nH]c(C)c(CC(=O)N3CCN(C)CCC3c3ncc(-c4ccc5ccccc5c4)[nH]3)c2c1 (stereo not shown) [2-(5-methoxy-2-methyl-1H-indol-3-yl)-1-(4-methyl-7-(5-(naphthalen-2-yl)-1H-imidazol-2-yl)-1,4-diazepan-1-yl)ethan-1-one] | 100 to 500
31 | COc1ccc2nc(C(F)(F)F)n(CC(=O)N3CCN(Cc4cscn4)C[C@H]3c3ncc(-c4cc5ccccc5nc4OC)[nH]3)c2c1 [(S)-2-(6-methoxy-2-(trifluoromethyl)-1H-benzo[d]imidazol-1-yl)-1-(2-(5-(2-methoxyquinolin-3-yl)-1H-imidazol-2-yl)-4-(thiazol-4-ylmethyl)piperazin-1-yl)ethan-1-one] | < 100
32 | COc1nc2ccccc2cc1-c1cnc([C@@H]2CN(CC3CCOC3)CCN2C(=O)Cn2c(C(F)(F)F)nc3ccccc32)[nH]1 (stereo partly drawn) [1-((2S)-2-(5-(2-methoxyquinolin-3-yl)-1H-imidazol-2-yl)-4-((tetrahydrofuran-3-yl)methyl)piperazin-1-yl)-2-(2-(trifluoromethyl)-1H-benzo[d]imidazol-1-yl)ethan-1-one] | < 100
33 | COc1nc2ccccc2cc1-c1cnc(C2CN(Cc3cccnc3)CCN2C(=O)Cc2c(C)[nH]c3ccc(F)cc23)[nH]1 (stereo not shown) | 100 to 500
34 | COc1ccc2nc(C(F)(F)F)n(CC(=O)N3CC[C@H](NCc4cnoc4)C[C@H]3c3ncc(-c4cc5ccccc5nc4OC)[nH]3)c2c1 [1-((2S,4S)-4-((isoxazol-4-ylmethyl)amino)-2-(5-(2-methoxyquinolin-3-yl)-1H-imidazol-2-yl)piperidin-1-yl)-2-(6-methoxy-2-(trifluoromethyl)-1H-benzo[d]imidazol-1-yl)ethan-1-one] | < 100
35 | COc1ccc2nc(C(F)(F)F)n(CC(=O)N3CCN(Cc4cscn4)CCC3c3ncc(-c4cc5ccccc5nc4OC)[nH]3)c2c1 (stereo not shown) [2-(6-methoxy-2-(trifluoromethyl)-1H-benzo[d]imidazol-1-yl)-1-(7-(5-(2-methoxyquinolin-3-yl)-1H-imidazol-2-yl)-4-(thiazol-4-ylmethyl)-1,4-diazepan-1-yl)ethan-1-one] | < 100
36 | COc1ccc2nc(C)n(CC(=O)N3CCN(C4CCOC4)C[C@H]3c3ncc(-c4cc5ccccc5nc4OC)[nH]3)c2c1 (stereo partly shown) | 100 to 500
37 | COc1nc2ccccc2cc1-c1cnc(C2CN(CC3CCOC3)CCN2C(=O)Cn2ccnc2-c2ccccc2)[nH]1 (stereo not shown) | 1010 to 5000
38 | Cc1[nH]c2ccccc2c1CC(=O)N1CCN(CCc2ccccc2)CC1c1ncc(-c2ccc3ccccc3c2)[nH]1 (stereo not shown) | 510 to 1000
39 | O=C(Cc1n[nH]c2ccccc12)N1CCN(CC2CC2)CC1c1ncc(-c2ccc3ccccc3c2)[nH]1 (stereo not shown) | 1010 to 5000
40 | COc1ccc2nc(C)n(CC(=O)N3CCN(C4CCS(=O)(=O)CC4)C[C@H]3c3ncc(-c4cc5ccccc5nc4OC)[nH]3)c2c1 | 510 to 1000
